In PMC5017749, “Preclinical Metabolism, Pharmacokinetics and In Vivo Analysis of New Blood-Brain-Barrier Penetrant Fingolimod Analogues: FTY720-C2 and FTY720-Mitoxy” (PLoS ONE, 2016):
Like-named read-outs stand apart in the source and are kept apart here.

What was measured:
[1] = Metabolic stability (intrinsic clearance) in monkey liver microsomes; format: in vitro ADME, monkey (Cynomolgus); settings: monkey liver microsomes
Protocol: (§1) Liver microsomal incubations contained 0.1mg/mL microsomal proteins and 1 μM of FTY720-C2 or FTY720-Mitoxy in 100 mM potassium phosphate buffer (pH 7.4) ± an NADPH regenerating system (3.5 mM glucose 6-phosphate, 1.3 mM NADP^+, and 0.4 units/mL glucose-6-phosphate dehydrogenase). Following incubations, reactions were terminated for analysis after 0, 10, 20, 30, and 60 min by the addition of acetonitrile containing C17 sphingosine (300 ng/mL) as the internal standard. Samples were vigorously mixed and centrifuged at 3,400 rpm for 10 min to pellet precipitated proteins. An aliquot of each supernatant was used for LC/MS analysis, for determination of the remaining FTY720-C2 and FTY720-Mitoxy. Similar incubations were performed using a cocktail solution containing 0.2 μM midazolam and 1 μM diclofenac to determine the metabolic activity of the microsomes as an additional control.
(§2) Samples resulting from liver microsomal incubations were analyzed by LC-MS/MS. Aliquots of the supernatants were injected onto an X-Bridge C18 column (2.1 × 50 mm, 3.5-μm particles) (Waters, Milford, MA), preceded by a SecurityGuard C18 guard column (4.0 × 2.0 mm; Phenomenex Inc.). Separations were accomplished with a gradient of 0.1% acetic acid in water (v/v) versus 0.1% acetic acid in acetonitrile: methanol (75:25, v/v) at a rate of 0.8 mL/min. The eluents were further applied into an equipped API 4000 QTrap mass spectrometer (AB Sciex, Foster City, CA) with electrospray ionization (ESI) interface by two coupled LC-10 AT pumps. Peak area ratios of FTY720-C2 or FTY720-Mitoxy against the C17 sphingosine internal standard were used to determine the amount of parent remaining compared to that at 0 min. The percent of FTY720-C2 or FTY720-Mitoxy remaining was calculated by dividing the peak area ratio obtained at each time point by that obtained at 0 min. The in vitro intrinsic clearance (CLint) was calculated by linear regression of the log percent of compound remaining versus time plots using Microsoft Excel, two independent experiments (n = 2) were performed for each compound and species. Then, the mean and standard deviation (SD), of two values for each condition, were calculated using Microsoft Excel with the “AVERAGE” and “STDEV” functions, respectively.

[2] = Metabolite profiling and identification in human hepatocytes; format: in vitro ADME; design: key to Source (peak identified in human hepatocytes): R = Rat; hr = Human; lowercase letter indicates low abundance; h: lowercase letter indicates low abundance; settings: for Percent Distribution (1 hr incubation) Human / Percent Distribution (2 hr incubation) Human: relative abundance among metabolites of the parent (1 μM), equal LC/MS sensitivity assumed
Protocol: (§3) Cryopreserved hepatocytes were grown in culture and incubations were performed to generate samples to measure the formation of FTY720-C2 and FTY720-Mitoxy metabolites. Incubations of 1 mL medium containing 1 million cells and 1 μM of FTY720-C2 and FTY720-Mitoxy were conducted at 37° C in a 5% CO2 incubator for 0, 1 and 2 hr, with gentle shaking. Positive control incubations used a cocktail solution containing 10 μM testosterone and 10 μM diclofenac performed for 0, 1 and 2 hr, under similar conditions to confirm the metabolic activity of the hepatocytes. The reactions were terminated by adding 2 mL acetonitrile containing 0.02% formic acid, and thoroughly mixing with gentle vortexing. Samples were transferred into 6 mL vials and stored in the freezer (-70°C) overnight for protein precipitation. Following overnight precipitations, samples were centrifuged at 3,000 rpm for 10 min to pellet proteins. Supernatants were transferred into clean 6 mL vials and evaporated to dryness using a TurboVap concentrator system. Samples were reconstituted using 600 μL 20% acetonitrile in water, briefly vortexed to resuspend, then aliquoted for LC-MS/MS analysis. Controls incubations also included “No drug control” and “no cell control” samples treated in a similar manner as test article samples.
(§4) Metabolite profiling and identification experiments were conducted by LC-MS/MS, composed of an HPLC system consisting of an Agilent Technologies 1200 Series Model G1322A Degasser, Agilent Technologies 1200 Series Model G1312A Binary Pump, Shimadzu HTc autosampler, and Valco Model E60 Flow Diversion Valve, and coupled to an API 4000 mass spectrometer. Separations were accomplished on a Gemini C18 column (150 × 2.0 mm, 5-μm particles; Phenomenex Inc., Torrance, CA), preceded by a SecurityGuard C18 guard column (4.0 × 2.0 mm; Phenomenex Inc.). A two-component mobile phase, consisted of a linear gradient of water containing 0.5% formic acid (v/v) and methanol:acetonitrile (1:1, v/v) containing 0.5% formic acid (v/v), was pumped at 0.3 mL/min. The first 4 min of flow was diverted away from the mass spectrometer. Analysis of the positive control samples was conducted with an HPLC system consisting of two Shimadzu LC-10ATvp pumps and a LEAP Pal autosampler. Separations were accomplished on a Luna C8(2) column (50 × 2.0 mm, 3-μm particles; Phenomenex Inc., Torrance, CA), preceded by a SecurityGuard C18 column (4.0 × 2.0 mm; Phenomenex Inc.). Separation was accomplished with a gradient of water containing 0.2% formic acid and 0.012% NH4OH (v/v) versus acetonitrile at an initial rate of 0.7 mL/min. An API 4000 QTrap mass spectrometer (AB Sciex, Foster City, CA) was used for analysis of positive control samples. Each mass spectrometer used was equipped with an electrospray ionization source and operated in the positive ionization mode. Metabolite identification experiments were performed by recording full scan mass spectral data (Q1MS) for all samples, and selected samples were analyzed to obtain product ion spectra (MS/MS) of test article metabolites identified in the full scan mass spectral data.

[3] = Metabolic stability (intrinsic clearance) in human liver microsomes; format: in vitro ADME
Protocol: as §1, §2

[4] = Metabolic stability (intrinsic clearance) in mouse liver microsomes; format: in vitro ADME, mouse (CD-1); settings: mouse liver microsomes
Protocol: as §1, §2

[5] = Metabolic stability (intrinsic clearance) in dog liver microsomes; format: in vitro ADME, dog (Beagle); settings: dog liver microsomes
Protocol: as §1, §2

[6] = Metabolic stability (intrinsic clearance) in rat liver microsomes; format: in vitro ADME, rat (Sprague-Dawley); settings: rat liver microsomes
Protocol: as §1, §2

[7] = design: method as in PMID 16751263; settings: rat, single IV doses ranging from 0.3 to 4 mg/kg; cited from earlier work
[8] = human, cited from earlier work
[9] = Metabolite profiling and identification in rat hepatocytes; format: in vitro ADME, rat (Sprague Dawley); design: key to Source (peak identified in rat hepatocytes): R = Rat; hr = Human; lowercase letter indicates low abundance; h: lowercase letter indicates low abundance; settings: for Percent Distribution (1 hr incubation) Rat / Percent Distribution (2 hr incubation) Rat: relative abundance among metabolites of the parent (1 μM), equal LC/MS sensitivity assumed
Protocol: as §3, §4

[10] = human hepatocytes, listed as FTY720-C2 C8-COOH
[11] = rat hepatocytes, listed as FTY720-C2 C8-COOH
[12] = FTY720-Mitoxy incubation, Table 5
[13] = human hepatocytes, listed as FTY720-Mitoxy C6-COOH
[14] = rat hepatocytes, listed as FTY720-Mitoxy C6-COOH

Row | Source (peak identified in human hepatocytes) ([2]; FTY720-C2 incubation, Table 4) | Percent Distribution (1 hr incubation) Human ([2]; human hepatocytes) | Percent Distribution (2 hr incubation) Human ([2]; human hepatocytes) | Source (peak identified in rat hepatocytes) ([9]; FTY720-C2 incubation, Table 4) | Percent Distribution (1 hr incubation) Rat ([9]; rat hepatocytes) | Percent Distribution (2 hr incubation) Rat ([9]; rat hepatocytes) | Structure (SMILES) | Source (peak identified in human hepatocytes) [2, 12] | Source (peak identified in rat hepatocytes) [9, 12] | also measured
1 |  |  |  |  |  |  | CCCCCCCCc1ccc(CCC(N)(CO)CO)cc1 [FTY720, Fingolimod] |  |  | intrinsic clearance interpreted in words [1]: slow and low; phosphorylated metabolites ([2]; human hepatocytes): identified; intrinsic clearance interpreted in words [3]: slow and low; intrinsic clearance interpreted in words [4]: slow and low; intrinsic clearance interpreted in words [5]: slow and low; intrinsic clearance interpreted in words [6]: slow and low; half-life [7]: ~ 20 hr; elimination half-life ([8]; after oral dosing): about 7 days; half-life ([8]; single oral doses of 1 mg): ~ 7 days; phosphorylated metabolites ([9]; rat hepatocytes): identified
2 | H | 3.2% | 7.21% | R | 21.4% | 35.72% | CC(=O)NC(CO)(CO)CCc1ccc(CC(=O)O)cc1 [FTY720-C2 C2-carboxylic acid] |  |  | 
3 | H | 23.7% | 25.57% | R | 9.7% | 12.88% | CC(=O)NC(CO)(CO)CCc1ccc(CCCC(=O)O)cc1 [FTY720-C2 C4-carboxylic acid] |  |  | 
4 | H | 49.0% | 52.13% | R | 37.0% | 39.37% | CC(=O)NC(CO)(CO)CCc1ccc(CCCCCCCC(=O)O)cc1 [FTY720-C2 C8-carboxylic acid] |  |  | Percent Distribution (1 hr incubation) Human [2, 10]: 49%; Percent Distribution (2 hr incubation) Human [2, 10]: 52%; Percent Distribution (1 hr incubation) Rat [9, 11]: 37%; Percent Distribution (2 hr incubation) Rat [9, 11]: 39%

Row | Structure (SMILES) | Source (peak identified in human hepatocytes) ([2]; FTY720-C2 incubation, Table 4) | Percent Distribution (1 hr incubation) Human ([2]; human hepatocytes) | Percent Distribution (2 hr incubation) Human ([2]; human hepatocytes) | Source (peak identified in rat hepatocytes) ([9]; FTY720-C2 incubation, Table 4) | Percent Distribution (1 hr incubation) Rat ([9]; rat hepatocytes) | Percent Distribution (2 hr incubation) Rat ([9]; rat hepatocytes) | Source (peak identified in human hepatocytes) [2, 12] | Source (peak identified in rat hepatocytes) [9, 12] | also measured
5 | O=C(O)CCCCCc1ccc(CCC(CO)(CO)NC(=O)CC[P+](c2ccccc2)(c2ccccc2)c2ccccc2)cc1 [FTY720-Mitoxy C6-carboxylic acid] |  | 58.6% | 54.8% |  | 83.6% | 79.3% | H | R | Percent Distribution (1 hr incubation) Human [2, 13]: 59%; Percent Distribution (2 hr incubation) Human [2, 13]: 55%; Percent Distribution (1 hr incubation) Rat [9, 14]: 84%; Percent Distribution (2 hr incubation) Rat [9, 14]: 79%
6 | O=C(O)CCCCCCCc1ccc(CCC(CO)(CO)NC(=O)CC[P+](c2ccccc2)(c2ccccc2)c2ccccc2)cc1 [FTY720-Mitoxy C8-carboxylic acid] |  | 20.0% | 27.3% |  | 4.4% | 3.4% | H | R | 
